Measurements from patent US5916873A, “Teicoplanin derivatives” (Eli Lilly and Company, priority 1998, dated 1999).
≈ marks a conversion by molar mass, not a printed value.

Key:
H. influR D/BL+ = type: cell-based, H. influ; details: Table 2C; strain RD/BL+
Description: (§1) The antibacterial efficacy of the present teicoplanin derivatives is illustrated by the following tables. The minimal inhibitory concentrations (MICs) were determined using a standard broth micro-dilution assay.

S. h. 415 = assay: standard broth micro-dilution MIC; type: cell-based; details: Table 2B; strain 415
Description: as §1

E. f. 276 = assay: standard broth micro-dilution MIC; type: cell-based; details: Table 2C; strain 276
Description: as §1

S. aureus X778 = assay: standard broth micro-dilution MIC; type: cell-based; details: Table 2A; strain X778
Description: as §1

S. aureus SA1199B = assay: standard broth micro-dilution MIC; type: cell-based; details: Table 2B; strain SA1199B
Description: as §1

S. aureus 489 = assay: standard broth micro-dilution MIC; type: cell-based; details: Table 2A; strain 489
Description: as §1

S. aureus 491 = assay: standard broth micro-dilution MIC; type: cell-based; details: Table 2A; strain 491
Description: as §1

S. aureus 447 = assay: standard broth micro-dilution MIC; type: cell-based; details: Table 2A; strain 447
Description: as §1

S. aureus 446 = assay: standard broth micro-dilution MIC; type: cell-based; details: Table 2A; strain 446
Description: as §1

S. aureus X400 = assay: standard broth micro-dilution MIC; type: cell-based; details: Table 2A; strain X400
Description: as §1

E. f. 2041 = assay: standard broth micro-dilution MIC; type: cell-based; details: Table 2B; strain 2041
Description: as §1

St. pneumo P1 = assay: standard broth micro-dilution MIC; type: cell-based; details: Table 2C; strain P1
Description: as §1

E. f. 180-1 = assay: standard broth micro-dilution MIC; type: cell-based; details: Table 2B; strain 180-1
Description: as §1

H. influ RD = assay: standard broth micro-dilution MIC; type: cell-based; details: Table 2C; strain RD
Description: as §1

S. h. 105 = assay: standard broth micro-dilution MIC; type: cell-based; details: Table 2B; strain 105
Description: as §1

S. aureus S13E = assay: standard broth micro-dilution MIC; type: cell-based; details: Table 2A; strain S13E
Description: as §1

M. cat M12 = assay: standard broth micro-dilution MIC; type: cell-based; details: Table 2C; strain M12
Description: as §1

EC14 = assay: standard broth micro-dilution MIC; type: cell-based; details: Table 2C; strain EC14
Description: as §1

S. aureus SA1199R = assay: standard broth micro-dilution MIC; type: cell-based; details: Table 2B; strain SA1199R
Description: as §1

S. epi 270 = assay: standard broth micro-dilution MIC; type: cell-based; details: Table 2B; strain 270
Description: as §1

St. pyro C203 = assay: standard broth micro-dilution MIC; type: cell-based; details: Table 2C; strain C203
Description: as §1

E. f. 180 = assay: standard broth micro-dilution MIC; type: cell-based; details: Table 2B; strain 180
Description: as §1

S. aureus SA1199 = assay: standard broth micro-dilution MIC; type: cell-based; details: Table 2A; strain SA1199
Description: as §1

E. gall. 245 = assay: standard broth micro-dilution MIC; type: cell-based; details: Table 2C; strain 245
Description: as §1

[1] = tested on: vancomycin-resistant enterococci; assay: mean geometric MIC, vancomycin-resistant enterococci, broth micro-dilution; type: cell-based, Enterococcus faecium and Enterococcus faecalis; details: Table 3, representative vancomycin-resistant enterococci
Description: as §1

[2] = tested on: vancomycin-sensitive enterococci; assay: mean geometric MIC, vancomycin-sensitive enterococci, broth micro-dilution; type: cell-based, Enterococcus faecium and Enterococcus faecalis; details: Table 3, representative vancomycin-sensitive enterococci
Description: as §1

## CC(=O)NC1C(OC2c3ccc(c(Cl)c3)Oc3cc4cc(c3OC3OC(CO)C(O)C(O)C3NCc3ccc(-c5ccccc5)cc3)Oc3ccc(cc3Cl)CC3NC(=O)C(NCc5ccc(-c6ccccc6)cc5)c5ccc(O)c(c5)Oc5cc(O)cc(c5)C(NC3=O)C(=O)NC4C(=O)NC3C(=O)NC2C(=O)NC(C(=O)O)c2cc(O)cc(OC4OC(CO)C(O)C(O)C4O)c2-c2cc3ccc2O)OC(CO)C(O)C1O.O=C(O)C(F)(F)F (centres unmarked) [Example 1, Deacyl Teicoplanin, Bis(4-phenylbenzyl) Derivative]
H. influR D/BL+
  MIC H. influR D/BL+: 64 µg/mL
S. h. 415
  MIC S. h. 415: 4 µg/mL
E. f. 276
  MIC E. f. 276: ≤ .06 µg/mL
S. aureus X778
  MIC S. aureus X778: 0.25 µg/mL
S. aureus SA1199B
  MIC S. aureus SA1199B: 0.5 µg/mL
S. aureus 489
  MIC S. aureus 489: 0.125 µg/mL
S. aureus 491
  MIC S. aureus 491: 0.25 µg/mL
S. aureus 447
  MIC S. aureus 447: 2 µg/mL
S. aureus 446
  MIC S. aureus 446: 0.5 µg/mL
S. aureus X400
  MIC S. aureus X400: 0.25 µg/mL
E. f. 2041
  MIC E. f. 2041: ≤ .06 µg/mL
St. pneumo P1
  MIC St. pneumo P1: ≤ .06 µg/mL
E. f. 180-1
  MIC E. f. 180-1: ≤ .06 µg/mL
H. influ RD
  MIC H. influ RD: 64 µg/mL
S. h. 105
  MIC S. h. 105: ≤ .06 µg/mL
S. aureus S13E
  MIC S. aureus S13E: 0.25 µg/mL
M. cat M12
  MIC M. cat M12: ≤ .06 µg/mL
EC14
  MIC EC14: > 64 µg/mL
S. aureus SA1199R
  MIC S. aureus SA1199R: ≤ .06 µg/mL
S. epi 270
  MIC S. epi 270: 1 µg/mL
St. pyro C203
  MIC St. pyro C203: ≤ .06 µg/mL
E. f. 180
  MIC E. f. 180: ≤ 06 µg/mL
S. aureus SA1199
  MIC S. aureus SA1199: 0.25 µg/mL
E. gall. 245
  MIC E. gall. 245: ≤ .06 µg/mL

## CC(=O)NC1C(OC2c3ccc(c(Cl)c3)Oc3cc4cc(c3OC3OC(CO)C(O)C(O)C3N)Oc3ccc(cc3Cl)CC3NC(=O)C(NCc5ccc(-c6ccccc6)cc5)c5ccc(O)c(c5)Oc5cc(O)cc(c5)C(NC3=O)C(=O)NC4C(=O)NC3C(=O)NC2C(=O)NC(C(=O)O)c2cc(O)cc(OC4OC(CO)C(O)C(O)C4O)c2-c2cc3ccc2O)OC(CO)C(O)C1O (centres unmarked) [Example 2, Deacyl Teicoplanin, N^15-(4-phenylbenzyl) Derivative]
H. influR D/BL+
  MIC H. influR D/BL+: 32 µg/mL (≈ 16.9 µM)
[1]
  Resist. MIC: > 32 µg/mL
[2]
  Sens. MIC: 2.6 µg/mL
S. h. 415
  MIC S. h. 415: 8 µg/mL (≈ 4.23 µM)
E. f. 276
  MIC E. f. 276: ≤ .03 µg/mL
S. aureus X778
  MIC S. aureus X778: 0.125 µg/mL (≈ 0.0661 µM)
S. aureus SA1199B
  MIC S. aureus SA1199B: ≤ .03 µg/mL
S. aureus 489
  MIC S. aureus 489: ≤ .03 µg/mL
S. aureus 491
  MIC S. aureus 491: ≤ .03 µg/mL
S. aureus 447
  MIC S. aureus 447: 0.25 µg/mL (≈ 0.132 µM)
S. aureus 446
  MIC S. aureus 446: ≤ .03 µg/mL
S. aureus X400
  MIC S. aureus X400: ≤ .03 µg/mL
E. f. 2041
  MIC E. f. 2041: ≤ .03 µg/mL
St. pneumo P1
  MIC St. pneumo P1: ≤ .03 µg/mL
E. f. 180-1
  MIC E. f. 180-1: 0.25 µg/mL (≈ 0.132 µM)
H. influ RD
  MIC H. influ RD: 16 µg/mL (≈ 8.46 µM)
S. h. 105
  MIC S. h. 105: 0.25 µg/mL (≈ 0.132 µM)
S. aureus S13E
  MIC S. aureus S13E: ≤ .03 µg/mL
M. cat M12
  MIC M. cat M12: 0.25 µg/mL (≈ 0.132 µM)
EC14
  MIC EC14: > 32 µg/mL
S. aureus SA1199R
  MIC S. aureus SA1199R: ≤ .03 µg/mL
S. epi 270
  MIC S. epi 270: 0.25 µg/mL (≈ 0.132 µM)
St. pyro C203
  MIC St. pyro C203: ≤ .03 µg/mL
E. f. 180
  MIC E. f. 180: 32 µg/mL (≈ 16.9 µM)
S. aureus SA1199
  MIC S. aureus SA1199: ≤ .03 µg/mL
E. gall. 245
  MIC E. gall. 245: 0.25 µg/mL (≈ 0.132 µM)

## CC(=O)NC1C(OC2c3ccc(c(Cl)c3)Oc3cc4cc(c3OC3OC(CO)C(O)C(O)C3NCc3ccc(Oc5ccccc5)cc3)Oc3ccc(cc3Cl)CC3NC(=O)C(NCc5ccc(Oc6ccccc6)cc5)c5ccc(O)c(c5)Oc5cc(O)cc(c5)C(NC3=O)C(=O)NC4C(=O)NC3C(=O)NC2C(=O)NC(C(=O)O)c2cc(O)cc(OC4OC(CO)C(O)C(O)C4O)c2-c2cc3ccc2O)OC(CO)C(O)C1O (centres unmarked) [Example 10]
[1]
  Resist. MIC: 1.7 µg/mL
[2]
  Sens. MIC: 0.19 µg/mL
S. h. 415
  MIC S. h. 415: 8 µg/mL (≈ 3.83 µM)
E. f. 276
  MIC E. f. 276: 0.5 µg/mL (≈ 0.239 µM)
S. aureus X778
  MIC S. aureus X778: 0.5 µg/mL (≈ 0.239 µM)
S. aureus SA1199B
  MIC S. aureus SA1199B: 0.5 µg/mL (≈ 0.239 µM)
S. aureus 489
  MIC S. aureus 489: 0.5 µg/mL (≈ 0.239 µM)
S. aureus 491
  MIC S. aureus 491: 1 µg/mL (≈ 0.478 µM)
S. aureus 447
  MIC S. aureus 447: 1 µg/mL (≈ 0.478 µM)
S. aureus 446
  MIC S. aureus 446: 0.25 µg/mL (≈ 0.12 µM)
S. aureus X400
  MIC S. aureus X400: 0.25 µg/mL (≈ 0.12 µM)
E. f. 2041
  MIC E. f. 2041: ≤ .06 µg/mL
St. pneumo P1
  MIC St. pneumo P1: 0.125 µg/mL (≈ 0.0598 µM)
E. f. 180-1
  MIC E. f. 180-1: ≤ .06 µg/mL
S. h. 105
  MIC S. h. 105: > 64 µg/mL
S. aureus S13E
  MIC S. aureus S13E: 2 µg/mL (≈ 0.957 µM)
M. cat M12
  MIC M. cat M12: ≤ .06 µg/mL
EC14
  MIC EC14: > 64 µg/mL
S. aureus SA1199R
  MIC S. aureus SA1199R: ≤ .06 µg/mL
S. epi 270
  MIC S. epi 270: 0.5 µg/mL (≈ 0.239 µM)
St. pyro C203
  MIC St. pyro C203: ≤ .06 µg/mL
E. f. 180
  MIC E. f. 180: 0.25 µg/mL (≈ 0.12 µM)
S. aureus SA1199
  MIC S. aureus SA1199: 2 µg/mL (≈ 0.957 µM)
E. gall. 245
  MIC E. gall. 245: 0.25 µg/mL (≈ 0.12 µM)

## CC(=O)NC1C(OC2c3ccc(c(Cl)c3)Oc3cc4cc(c3OC3OC(CO)C(O)C(O)C3NCc3cccc(Oc5ccccc5)c3)Oc3ccc(cc3Cl)CC3NC(=O)C(NCc5cccc(Oc6ccccc6)c5)c5ccc(O)c(c5)Oc5cc(O)cc(c5)C(NC3=O)C(=O)NC4C(=O)NC3C(=O)NC2C(=O)NC(C(=O)O)c2cc(O)cc(OC4OC(CO)C(O)C(O)C4O)c2-c2cc3ccc2O)OC(CO)C(O)C1O (centres unmarked) [Example 11]
[1]
  Resist. MIC: 3.4 µg/mL
[2]
  Sens. MIC: 0.11 µg/mL
S. h. 415
  MIC S. h. 415: 16 µg/mL (≈ 7.66 µM)
E. f. 276
  MIC E. f. 276: 0.25 µg/mL (≈ 0.12 µM)
S. aureus X778
  MIC S. aureus X778: 0.25 µg/mL (≈ 0.12 µM)
S. aureus SA1199B
  MIC S. aureus SA1199B: 0.25 µg/mL (≈ 0.12 µM)
S. aureus 489
  MIC S. aureus 489: 1 µg/mL (≈ 0.478 µM)
S. aureus 491
  MIC S. aureus 491: 0.25 µg/mL (≈ 0.12 µM)
S. aureus 447
  MIC S. aureus 447: 1 µg/mL (≈ 0.478 µM)
S. aureus 446
  MIC S. aureus 446: 2 µg/mL (≈ 0.957 µM)
S. aureus X400
  MIC S. aureus X400: 0.5 µg/mL (≈ 0.239 µM)
E. f. 2041
  MIC E. f. 2041: ≤ .06 µg/mL
St. pneumo P1
  MIC St. pneumo P1: ≤ .06 µg/mL
E. f. 180-1
  MIC E. f. 180-1: 0.25 µg/mL (≈ 0.12 µM)
S. h. 105
  MIC S. h. 105: > 64 µg/mL
S. aureus S13E
  MIC S. aureus S13E: 2 µg/mL (≈ 0.957 µM)
M. cat M12
  MIC M. cat M12: ≤ .06 µg/mL
EC14
  MIC EC14: > 64 µg/mL
S. aureus SA1199R
  MIC S. aureus SA1199R: ≤ .06 µg/mL
S. epi 270
  MIC S. epi 270: ≤ .06 µg/mL
St. pyro C203
  MIC St. pyro C203: ≤ .06 µg/mL
E. f. 180
  MIC E. f. 180: 1 µg/mL (≈ 0.478 µM)
S. aureus SA1199
  MIC S. aureus SA1199: 0.5 µg/mL (≈ 0.239 µM)
E. gall. 245
  MIC E. gall. 245: 0.125 µg/mL (≈ 0.0598 µM)
